{"source": "paper PMC6353801", "about": "“Enhanced Anti-diabetic Effect of Berberine Combined With Timosaponin B2 in Goto-Kakizaki Rats, Associated With Increased Variety and Exposure of Effective Substances Through Intestinal Absorption” (Frontiers in Pharmacology, 2019)", "assay": "Transport in Caco-2 cells", "type": "in vitro ADME, human", "details": "human", "method": "The culture medium was changed every other day for the first 7 days and then daily for the next 14 days. […] Prior to the transport experiments, the cell monolayers were washed three times with HBSS at 37°C. […] At the same time, the corresponding opposite side was filled with medium as the receiving chamber. After incubation for 30, 60, 90, and 120 min, 250-μl aliquots of the medium was taken from the receiving chamber at each time point, and prepared for analysis by HPLC–MS/MS. […] where (ΔQ/Δt) is the linear slope of the drug concentration in the receptor chamber over time, A represents the surface area of the membrane (1.12 cm^2), and C0 is the initial concentration of drug in the donor chamber. The efflux ratio (ERpermeability) for BL to AP and AP to BL transport was defined by the following equation: […] where Papp (BL–AP) and Papp (AP–BL) are the apparent permeability of drugs from the basolateral (BL) to apical (AP) and AP to BL sides of the monolayer, respectively.", "key": {"[1]": {"details": "Caco-2, BBR 10 μM in presence of TB-2 (5 μM), n = 3"}}, "data": [{"smiles": "COc1ccc2cc3[n+](cc2c1OC)CCc1cc2c(cc1-3)OCO2", "note": "[BBR, berberine]", "values": [{"measurement": "efflux ratio at 10 μM", "setting": "Caco-2, Caco-2, BBR 10 μM in presence of TB-2 (5 μM), read-out: ERpermeability (efflux ratio)", "result": 31.1}, {"measurement": "Papp A→B at 10 μM", "setting": "[1]", "result": "0.048 ± 0.014", "unit": "×10⁻⁶ cm/s"}, {"measurement": "Papp B→A at 10 μM", "setting": "[1]", "result": "1.5 ± 0.499", "unit": "×10⁻⁶ cm/s"}]}]}
